Measured values as given in US20100197610A1, “FRUCTOSE 1, 6 BISPHOSPHATE - A NOVEL ANTICONVULSANT DRUG” (Baylor College of Medicine, priority 2007, published 2010).

Assays:
[1] = Preliminary studies of efficacy, trisodium vs dicalcium salt of FDP; format: in vivo
[2] = system: pilocarpine-induced seizures; test: Pilocarpine model of acute seizures; format: in vivo, Sprague Dawley rats
Description: All animal experiments were carried out in accordance with the National Institutes of Health guide for the care and use of laboratory animals (NIH publication 8023, revised 1996) and with the approval of the local Animal Use Committee. Unless indicated, all chemicals were obtained from Sigma Chemical Co (St. Louis Mo.). Male, Sprague Dawley rats weighing 50-74 g (young) or 147-309 g (adult) were used in this study. Acute seizures were induced by kainic acid (KA; Ocean Produce Int., Canada), pilocarpine or pentylenetetrazole (PTZ) as previously described (Lian et al 2006). These models were chosen because they initiate seizures by different mechanisms and the seizures have a relatively gradual onset compared to seizures initiated by stimulation. There was no difference in the body weight of the animals receiving the different convulsants. For pilocarpine, kainic acid and PTZ, the mean weights were 219±5 g (range 163-275 g), 215±7 g (range 183-258 g), and 216±13 g (range 147-309 g), respectively. The animals in the drug treatment groups were not different in weight from the animals in the control groups.
After administration of KA (10 mg/kg, ip), pilocarpine (scopolamine methyl bromide 1 mg/kg, s.c followed 15 min later by 300 mg/kg, ip pilocarpine) or PTZ (50 mg/kg, ip) (Lian et al., 2006), animals were continuously monitored for seizure activity for at least 5 h after KA or pilocarpine and for 30 min after PTZ. Behavioral seizures were scored by an investigator blinded to the treatment. Latency to the first wet dog shake after KA, latency to the first forelimb clonus (after pilocarpine, kainic acid or PTZ) and the score and duration of seizures were measured. When at least 1 hour had passed without any head bobbing (for pilocarpine) or any wet dog shakes (for KA), seizures were considered over. Status epilepticus lasting longer than 4 hours (for KA) or 5 hours (for pilocarpine) were assigned 4 and 5 hours for seizure duration. For animals receiving PTZ, the seizure duration was defined as the period of tonic-clonic seizures. EEG recording in the hippocampus was conducted as previously described (Lian et al., 2004). After anesthesia, a recording electrode was placed in a burr hole centered at 3.0 mm posterior to bregma, 1.8 mm lateral to the midline and then lowered 3.0 mm. A ground screw and wire was placed over the frontal region in another burr hole. This assembly was fixed to the skull with dental cement.
Each animal was assigned the score of the most severe seizure observed. The behavioral seizures induced by KA or pilocarpine were scored according to an adjusted version of the scale of Racine (Bough et al., 2002): stage 1, wet dog shakes after KA or trembling after pilocarpine; stage 2, head bobbing and stereotypes; stage 3, unilateral forelimb clonus; stage 4, bilateral forelimb clonus; stage 5, rearing and falling; stage 6, jumping and/or running followed by falling. Death within 24 h was assigned stage 7.
Adult rats received either D-F1,6BP, sodium valproate (VPA, 0.3 g/kg), 2-DG (0.25, 0.5 g/kg) or normal saline (vehicle) intraperitoneally followed 1 h later by one of the convulsants. The dose for VPA was based on experimental evidence that doses from 0.1 to 0.4 g/kg (ip) are effective in animal models (Bough and Eagles, 2001; Manent et al., 2007). Three doses of F1,6BP (0.25, 0.5 and 1 g/kg) were tested with this dosing schedule. Two additional groups were administered F1,6BP (0.5 or 1 g/kg, n=5) after pilocarpine. In this experiment, the F1,6BP was given intraperitoneally at the first behavioral seizure, which was chewing movements of the jaw. Two additional sets of animals were fed the classic ketogenic diet (No. F3666; Bio-Serv, Frenchtown, N.J.). One set of animals was given the diet beginning on postnatal day 22-26 (KD-Yng) and maintained on this diet for 4 weeks. Thus the seizures were tested in this group when the animals had reached approximately the same age (50-54 days) as the majority of the animals tested. […]

[3] = Markov et al., 2000; cited from earlier work
[4] = intravenous, rats (Nunes et al., 2003); cited from earlier work
[5] = 1 g/kg given at first sign of seizure activity after pilocarpine

Structure (SMILES): O=C(COP(=O)(O)O)[C@@H](O)[C@H](O)[C@H](O)COP(=O)(O)O [F1,6BP, Fructose-1,6-bisphosphate]
- efficacy of trisodium salt vs dicalcium salt [1]: no difference in efficacy
- latency to forelimb clonus [2, 5]: increase
- seizure duration [2, 5]: decrease
- progression of the seizures ([2]; 1 g/kg given at first sign of seizure activity after pilocarpine, n=5): significantly slowed
- behavioral or electrographic seizures (hippocampal EEG) ([2]; 4 rats pretreated with 1 g/kg): no behavioral or electrographic seizures
- effect on the seizure parameters ([2]; F1,6BP 0.25 g/kg ip 1 h before pilocarpine, n=5): no effect
- animals with a seizure score ≧3 ([2]; F1,6BP 0.5 g/kg ip 1 h before pilocarpine): 3 out of 10
- animals with a seizure score ≧3 ([2]; F1,6BP 1 g/kg ip 1 h before pilocarpine): 2 out of 10
- seizure duration ([2]; pretreated with 0.5 or 1 g/kg): significantly decreased
- seizure score ([2]; pretreated with 0.5 or 1 g/kg): significantly decreased
- latency to the seizures ([2]; the 5 animals with score ≧3 after 0.5 or 1 g/kg pretreatment): significantly increased
- FDP in blood of humans after administration of FDP [3]: 3.39 mg/dL
- LD50 [4]: 1,068 mg/kg
